Laboratory results published in publication PMC8301926 (Biomolecules, 2021).

Molecular target: T1, human M4 muscarinic acetylcholine receptor (hM4R) (Homo sapiens, UniProt P08173)
T1 construct: host or cells: CHO cells
T1 sequence (P08173 1-479): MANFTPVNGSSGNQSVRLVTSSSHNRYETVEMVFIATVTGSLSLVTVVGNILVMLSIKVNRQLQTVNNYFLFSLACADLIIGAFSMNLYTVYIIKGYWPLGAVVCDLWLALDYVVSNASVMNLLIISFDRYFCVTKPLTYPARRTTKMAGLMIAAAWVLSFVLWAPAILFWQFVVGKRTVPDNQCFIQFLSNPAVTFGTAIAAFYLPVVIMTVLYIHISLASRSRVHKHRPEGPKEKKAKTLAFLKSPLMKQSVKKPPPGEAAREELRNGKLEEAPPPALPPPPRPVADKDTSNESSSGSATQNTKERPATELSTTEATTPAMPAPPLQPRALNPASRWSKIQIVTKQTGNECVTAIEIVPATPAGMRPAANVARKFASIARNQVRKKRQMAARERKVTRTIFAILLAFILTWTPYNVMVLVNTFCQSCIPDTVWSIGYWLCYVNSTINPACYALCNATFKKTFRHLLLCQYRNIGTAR
Experiment: M4 (h) functional GPCR assay, agonist effect, cAMP HTRF
Format: cell-based
Details: 100 µM; % of control response to 1-µM acetylcholine; CHO cells

SMILES: Cc1coc2c1C(=O)C(=O)c1c-2ccc2c(C)cccc12 [Tanshinone I]
- % Stimulation, M4: −23.5 ± 1.48%
